# Measured values: ChEMBL document CHEMBL3885881, “DrugMatrix”
# Species on record: Rattus norvegicus
# Assay: DrugMatrix - Regimen: Daily Repeat
# Format: toxicity, organism-based, Sprague-Dawley
# Set-up: regimen Daily Repeat, gender Male, age 6-8 weeks
# Settings: in vivo, po, route oral GAVAGE, vehicle .5 % CMC; for BASOPHIL / EOSINOPHIL / ERYTHROCYTE COUNT / HEMATOCRIT / HEMOGLOBIN / LEUKOCYTE COUNT / LYMPHOCYTE / MEAN CORPUSCULAR HEMOGLOBIN / MEAN CORPUSCULAR HEMOGLOBIN CONCENTRATION / MEAN CORPUSCULAR VOLUME / MONOCYTE / NEUTROPHIL / PLATELET COUNT: tissue Blood; for ALANINE AMINOTRANSFERASE / ALBUMIN / ALKALINE PHOSPHATASE / ASPARTATE AMINOTRANSFERASE / BLOOD UREA NITROGEN / CHLORIDE / CHOLESTEROL / CREATINE PHOSPHOKINASE / CREATININE / GLUCOSE / PHOSPHORUS / POTASSIUM / SODIUM / TOTAL BILIRUBIN / TOTAL PROTEIN: tissue Plasma
# [1] = 0 mg/kg, 72 h, dose level Control, time 3 day
# [2] = 0 mg/kg, 120 h, dose level Control, time 5 day
# [3] = 41 mg/kg, 72 h, dose level High, time 3 day
# [4] = 41 mg/kg, 120 h, dose level High, time 5 day
# [5] = […], 72 h, dose 4.1 mg/Kg, dose level Low, time 3 day
# [6] = […], 120 h, dose 4.1 mg/Kg, dose level Low, time 5 day
structure (smiles),measurement,setting,value
O=C1c2ccccc2C(=O)C1c1ccccc1 [PHENINDIONE],BASOPHIL,[1],0.68%
same,EOSINOPHIL,[1],0.46%
same,ERYTHROCYTE COUNT,[1],7.15 x10E6/uL
same,HEMATOCRIT,[1],45.44%
same,HEMOGLOBIN,[1],14.1 G/DL
same,LEUKOCYTE COUNT,[1],9.78 x10E3/uL
same,LYMPHOCYTE,[1],84.44%
same,MEAN CORPUSCULAR HEMOGLOBIN,[1],19.72 pg
same,MEAN CORPUSCULAR HEMOGLOBIN CONCENTRATION,[1],31 G/DL
same,MEAN CORPUSCULAR VOLUME,[1],63.66 fL
same,MONOCYTE,[1],2.14%
same,NEUTROPHIL,[1],11.16%
same,PLATELET COUNT,[1],1378.2 x10E3/uL
same,ALANINE AMINOTRANSFERASE,[1],42.33 u/L
same,ALBUMIN,[1],3.8 G/DL
same,ALKALINE PHOSPHATASE,[1],388.17 u/L
same,ASPARTATE AMINOTRANSFERASE,[1],68 u/L
same,BLOOD UREA NITROGEN,[1],16.17 mg/dL
same,CHLORIDE,[1],96.67 MEQ/L
same,CHOLESTEROL,[1],71 mg/dL
same,CREATINE PHOSPHOKINASE,[1],156.17 u/L
same,CREATININE,[1],0.57 mg/dL
same,GLUCOSE,[1],193.67 mg/dL
same,PHOSPHORUS,[1],11.43 mg/dL
same,POTASSIUM,[1],7 MEQ/L
same,SODIUM,[1],140.33 MEQ/L
same,TOTAL BILIRUBIN,[1],0.48 mg/dL
same,TOTAL PROTEIN,[1],6.8 G/DL
same,BASOPHIL,[2],1.47%
same,EOSINOPHIL,[2],1%
same,ERYTHROCYTE COUNT,[2],7.12 x10E6/uL
same,HEMATOCRIT,[2],45.47%
same,HEMOGLOBIN,[2],14.1 G/DL
same,LEUKOCYTE COUNT,[2],11.38 x10E3/uL
same,LYMPHOCYTE,[2],82.57%
same,MEAN CORPUSCULAR HEMOGLOBIN,[2],19.82 pg
same,MEAN CORPUSCULAR HEMOGLOBIN CONCENTRATION,[2],31.02 G/DL
same,MEAN CORPUSCULAR VOLUME,[2],63.88 fL
same,MONOCYTE,[2],2.2%
same,NEUTROPHIL,[2],11.97%
same,PLATELET COUNT,[2],1267 x10E3/uL
same,ALANINE AMINOTRANSFERASE,[2],38 u/L
same,ALBUMIN,[2],3.72 G/DL
same,ALKALINE PHOSPHATASE,[2],391 u/L
same,ASPARTATE AMINOTRANSFERASE,[2],65.83 u/L
same,BLOOD UREA NITROGEN,[2],14.17 mg/dL
same,CHLORIDE,[2],107.67 MEQ/L
same,CHOLESTEROL,[2],61 mg/dL
same,CREATINE PHOSPHOKINASE,[2],148.33 u/L
same,CREATININE,[2],0.57 mg/dL
same,GLUCOSE,[2],177.17 mg/dL
same,PHOSPHORUS,[2],12.07 mg/dL
same,POTASSIUM,[2],7.2 MEQ/L
same,SODIUM,[2],151.5 MEQ/L
same,TOTAL BILIRUBIN,[2],0.58 mg/dL
same,TOTAL PROTEIN,[2],6.72 G/DL
same,BASOPHIL,[3],0.3%
same,EOSINOPHIL,[3],0.33%
same,ERYTHROCYTE COUNT,[3],7.21 x10E6/uL
same,HEMATOCRIT,[3],45.77%
same,HEMOGLOBIN,[3],14.17 G/DL
same,LEUKOCYTE COUNT,[3],11.97 x10E3/uL
same,LYMPHOCYTE,[3],84.4%
same,MEAN CORPUSCULAR HEMOGLOBIN,[3],19.77 pg
same,MEAN CORPUSCULAR HEMOGLOBIN CONCENTRATION,[3],30.97 G/DL
same,MEAN CORPUSCULAR VOLUME,[3],63.73 fL
same,MONOCYTE,[3],2.13%
same,NEUTROPHIL,[3],11.97%
same,PLATELET COUNT,[3],1382.67 x10E3/uL
same,ALANINE AMINOTRANSFERASE,[3],31.33 u/L
same,ALBUMIN,[3],3.67 G/DL
same,ALKALINE PHOSPHATASE,[3],276 u/L
same,ASPARTATE AMINOTRANSFERASE,[3],57 u/L
same,BLOOD UREA NITROGEN,[3],11 mg/dL
same,CHLORIDE,[3],96 MEQ/L
same,CHOLESTEROL,[3],75.33 mg/dL
same,CREATINE PHOSPHOKINASE,[3],160 u/L
same,CREATININE,[3],0.47 mg/dL
same,GLUCOSE,[3],189.67 mg/dL
same,PHOSPHORUS,[3],13.23 mg/dL
same,POTASSIUM,[3],6.77 MEQ/L
same,SODIUM,[3],140.67 MEQ/L
same,TOTAL BILIRUBIN,[3],0.27 mg/dL
same,TOTAL PROTEIN,[3],6.63 G/DL
same,BASOPHIL,[4],1.47%
same,EOSINOPHIL,[4],0.3%
same,ERYTHROCYTE COUNT,[4],7.12 x10E6/uL
same,HEMATOCRIT,[4],45.4%
same,HEMOGLOBIN,[4],14.17 G/DL
same,LEUKOCYTE COUNT,[4],14.99 x10E3/uL
same,LYMPHOCYTE,[4],85.6%
same,MEAN CORPUSCULAR HEMOGLOBIN,[4],19.93 pg
same,MEAN CORPUSCULAR HEMOGLOBIN CONCENTRATION,[4],31.23 G/DL
same,MEAN CORPUSCULAR VOLUME,[4],63.83 fL
same,MONOCYTE,[4],2.43%
same,NEUTROPHIL,[4],9.5%
same,PLATELET COUNT,[4],1502.67 x10E3/uL
same,ALANINE AMINOTRANSFERASE,[4],34 u/L
same,ALBUMIN,[4],3.53 G/DL
same,ALKALINE PHOSPHATASE,[4],292 u/L
same,ASPARTATE AMINOTRANSFERASE,[4],57 u/L
same,BLOOD UREA NITROGEN,[4],10.67 mg/dL
same,CHLORIDE,[4],103.67 MEQ/L
same,CHOLESTEROL,[4],83.33 mg/dL
same,CREATINE PHOSPHOKINASE,[4],132.67 u/L
same,CREATININE,[4],0.47 mg/dL
same,GLUCOSE,[4],192.67 mg/dL
same,PHOSPHORUS,[4],12.77 mg/dL
same,POTASSIUM,[4],7.37 MEQ/L
same,SODIUM,[4],150 MEQ/L
same,TOTAL BILIRUBIN,[4],0.37 mg/dL
same,TOTAL PROTEIN,[4],6.43 G/DL
same,BASOPHIL,[5],0.47%
same,EOSINOPHIL,[5],0.27%
same,ERYTHROCYTE COUNT,[5],7.09 x10E6/uL
same,HEMATOCRIT,[5],45.17%
same,HEMOGLOBIN,[5],13.97 G/DL
same,LEUKOCYTE COUNT,[5],12.61 x10E3/uL
same,LYMPHOCYTE,[5],82.37%
same,MEAN CORPUSCULAR HEMOGLOBIN,[5],19.7 pg
same,MEAN CORPUSCULAR HEMOGLOBIN CONCENTRATION,[5],30.9 G/DL
same,MEAN CORPUSCULAR VOLUME,[5],63.73 fL
same,MONOCYTE,[5],2.5%
same,NEUTROPHIL,[5],13.5%
same,PLATELET COUNT,[5],1416.33 x10E3/uL
same,ALANINE AMINOTRANSFERASE,[5],33 u/L
same,ALBUMIN,[5],3.63 G/DL
same,ALKALINE PHOSPHATASE,[5],396.33 u/L
same,ASPARTATE AMINOTRANSFERASE,[5],56 u/L
same,BLOOD UREA NITROGEN,[5],11.33 mg/dL
same,CHLORIDE,[5],96 MEQ/L
same,CHOLESTEROL,[5],74.67 mg/dL
same,CREATINE PHOSPHOKINASE,[5],136.67 u/L
same,CREATININE,[5],0.47 mg/dL
same,GLUCOSE,[5],209.33 mg/dL
same,PHOSPHORUS,[5],12.83 mg/dL
same,POTASSIUM,[5],6.4 MEQ/L
same,SODIUM,[5],140.33 MEQ/L
same,TOTAL BILIRUBIN,[5],0.27 mg/dL
same,TOTAL PROTEIN,[5],6.5 G/DL
same,BASOPHIL,[6],1.43%
same,EOSINOPHIL,[6],0.2%
same,ERYTHROCYTE COUNT,[6],6.9 x10E6/uL
same,HEMATOCRIT,[6],44.03%
same,HEMOGLOBIN,[6],13.87 G/DL
same,LEUKOCYTE COUNT,[6],10.25 x10E3/uL
same,LYMPHOCYTE,[6],84.9%
same,MEAN CORPUSCULAR HEMOGLOBIN,[6],20.03 pg
same,MEAN CORPUSCULAR HEMOGLOBIN CONCENTRATION,[6],31.4 G/DL
same,MEAN CORPUSCULAR VOLUME,[6],63.83 fL
same,MONOCYTE,[6],2.17%
same,NEUTROPHIL,[6],10.6%
same,PLATELET COUNT,[6],1408.33 x10E3/uL
same,ALANINE AMINOTRANSFERASE,[6],37.33 u/L
same,ALBUMIN,[6],3.6 G/DL
same,ALKALINE PHOSPHATASE,[6],340.67 u/L
same,ASPARTATE AMINOTRANSFERASE,[6],58 u/L
same,BLOOD UREA NITROGEN,[6],9 mg/dL
same,CHLORIDE,[6],103.33 MEQ/L
same,CHOLESTEROL,[6],58 mg/dL
same,CREATINE PHOSPHOKINASE,[6],132.33 u/L
same,CREATININE,[6],0.43 mg/dL
same,GLUCOSE,[6],190.33 mg/dL
same,PHOSPHORUS,[6],13.17 mg/dL
same,POTASSIUM,[6],7.2 MEQ/L
same,SODIUM,[6],150.33 MEQ/L
same,TOTAL BILIRUBIN,[6],0.27 mg/dL
